Experimental data taken from patent US20050107438A1, “Pharmaceutical composition comprising 3-[(2-{[4-(Hexyloxycarbonylaminoiminomethyl) phenylamino]-methyl}-1-methyl-1H-benzimidazol-5-carbonyl)-pyridin-2-yl-amino]-propionic acid ethyl ester or a salt therefore” (Boehringer Ingelheim International GmbH, priority 2003, published 2005).

Test: Solubility of the compound in water as a function of pH
Format: physicochemical
Excerpt: Therefore, pantoprazole which serves to raise the pH of the stomach was given to the test subjects in one branch of treatment in the clinical trials.

Compound: CCCCCCOC(=O)NC(=N)c1ccc(NCc2nc3cc(C(=O)N(CCC(=O)OCC)c4ccccn4)ccc3n2C)cc1 [compound of formula (I), ethyl 3-[(2-{[4-(hexyloxycarbonylaminoiminomethyl)phenylamino]methyl}-1-methyl-1H-benzimidazole-5-carbonyl)pyridin-2-ylamino]propionate]
- solubility in water (low pH values): dissolves relatively easily
- solubility in water (pH levels above 5, definition of the European Pharmacopoeia): virtually insoluble
